Data reported in patent US6359176B1, “Cationic surfactants, process for producing the same and utilization thereof” (Matsumoto Yushi-Seiyaku Co., Ltd., priority 1999, dated 2002).

Assays:
[1] = Determination of craft point (temperature at which 1 wt % surfactant dissolves clearly, visual inspection); type: physicochemical; settings: 1 weight % aqueous solution in pure water
Description: (§1) Determination of craft point, critical micelle concentration and surface tension
(§2) An aqueous solution of 1 weight % of a surfactant (solution with pure water) was prepared and the craft point, at which a surfactant dissolves clearly, was determined with visual inspection. And the aqueous solution of several surfactants with varied concentration was prepared with pure water and their surface tension at 25° C. was determined.

[2] = Determination of critical micelle concentration and surface tension of aqueous surfactant solutions; type: physicochemical; settings: pure water, 25° C.; for Surface tension γ cmc (mN/m): at cmc
Description: as §1, §2

activated sludge = assay: Biodegradability: degradation by microorganisms with degradation tester and closed system oxygen consumption meter; settings: 14 days biodegradability test
Description: The biodegradability of the derivatives was determined by checking the degree of degradation of those chemicals by microorganisms (procedures defined in Japanese domestic low for regulation of chemical substances and in OECD) with a degradation tester and closed system oxygen consumption meter. The test was continued for 14 days and the biodegradability data was calculated into percentage.
The 100-% degradability in the testing means that whole of a test sample has been degraded into inorganic substances such as carbon dioxide.

CCCCCCCCCCCCCCCCCC(=O)OCC(O)C(O)C(O)C(O)C[N+](C)(C)C.[I-] (stereo not drawn) [Monostearate derivative]
Craft point (1 wt %, ° C.) [1]: 40.5 °C

CCCCCCCCCCCC(=O)OCC(O)C(O)C(O)C(O)C[N+](C)(C)C.[Cl-] (stereo not drawn) [Monolaurate derivative]
Craft point (1 wt %, ° C.) [1]: <0 °C | Critical micelle concentration cmc [2]: 0.0012 mol/L | Surface tension γ cmc (mN/m) [2]: 30.2 mN/m

CCCCCCCCCCCCCCCC[N+](C)(C)C.[Br-] [Cetyl trimethyl ammonium bromide]
Effect on activated sludge (in words) (activated sludge): inhibited the propagation of activated sludge

CCCCCCCCCCCCCC(=O)OCC(O)C(O)C(O)C(O)C[N+](C)(C)C.[I-] (stereo not drawn) [Monomyristate derivative]
Craft point (1 wt %, ° C.) [1]: <0 °C | Critical micelle concentration cmc [2]: 0.00034 mol/L | Surface tension γ cmc (mN/m) [2]: 34.2 mN/m

CCCCCCCCCCCCCCCC(=O)OCC(O)C(O)C(O)C(O)C[N+](C)(C)C.[Cl-] (stereo not drawn) [Monopalmitate derivative]
Craft point (1 wt %, ° C.) [1]: 33.5 °C
